# Laboratory results: patent US8202887B2, “2-(substituted-amino)-benzothiazole sulfonamide HIV protease inhibitors” (Janssen R&D Ireland, priority 2006, dated 2012)
# Assays:
# Beagle dogs [1] = assay: Hypersensitivity testing: erythema and edema in dogs, single dose; type: in vivo; details: for induction of erythema and/or edema: single dose experiments in dogs, summary in words
# Method: (§1) Studies were carried out to test for the occurrence of erythema and edema in dogs. The compound having structural formula (II) was orally administered to Beagle dogs in an appropriate formulation as a single-dose, dose-escalating study design. In order to achieve high systemic exposures, a so-called booster compound was co-administered (ritonavir, RTV). Blood samples were taken at regular time points following the dosing. Clinical signs were recorded at least once daily for the treatment period and follow up (for at least 24 hours). Symptoms were graded on a […], with 0 being absence of symptoms, 1 mild, 2, moderate, 3 severe, 4 very severe. Special attention was paid to the occurrence of erythema and edema.
# [2] = Pharmacokinetics of compound II and boosting effect of ritonavir in fed male beagle dogs; type: in vivo; details: for AUC(0-inf) / Cmax: male, beagle, dog, plasma, po
# Method: Pharmacokinetics of Compound II and Boosting Effect of Ritonavir in Fed Male Beagle Dogs after Single Oral Administration of Compound II at 10 or 40 mg/kg.
# The present study was performed to study the plasma pharmacokinetics of compound II in male beagle dogs after single oral administration doses of 10 and 40 mg/kg, and to evaluate the potential boosting effect of ritonavir, dosed at 10 mg/kg twice daily, on the bioavailability of compound II.
# Beagle dogs (7-11 kg body weight) were dosed after feeding. Both compound II and ritonavir were given by gavage of an oral solution. All animals first received compound II alone, and after a washout of one week, the combination of ritonavir and compound II in the morning. Ritonavir dosing was repeated in the evening and on the next day's morning. Plasma was sampled to measure compound II and ritonavir concentrations until 32 hours after dosing of compound II.
# Beagle dogs [3] = assay: 28 day / 1-month toxicology study in beagle dogs; type: in vivo; details: for erythema and edema after oral administration: summary of toxicology studies up to 1 month in duration, beagle dog
# Method: These findings occurred shortly after dosing, were transient in nature, maximal between approximately 1 to 2 hours after dosing, disappearing thereafter. There was a large interindividual variation in this response, with no dose-response relationship. Mechanistic studies to clarify the cause for erythema were not indicative of a histamine-based mechanism of action.
# [4] = test system: clinically isolated HIV strain C; assay: Cellular anti-viral assay in MT4-LTR-EGFP cells, mutant strain C; type: cell-based; details: Human immunodeficiency virus 1, 72 h, read-out: pEC50 virus strain C (converted)
# Method: (§2) Because of the increasing emergence of drug resistant HIV strains, the present compounds were tested for their potency against clinically isolated HIV strains harboring several mutations. These mutations are associated with resistance to protease inhibitors and result in viruses that show various degrees of phenotypic cross-resistance to the currently commercially available drugs such as for instance saquinavir, ritonavir, nelfinavir, indinavir and amprenavir. The viral strains coded as A, B, C and D contain mutations as indicated below in Table 2.
# (§3) The cellular assay was performed according to the following procedure. HIV- or mock-infected MT4-LTR-EGFP cells were incubated for three days in the presence of various concentrations of the compounds according to the invention. Upon infection, the viral tat protein activates the GFP reporter. At the end of the incubation period, the GFP signal was measured. In the virus control samples (in the absence of any inhibitor) the maximal fluorescent signal was obtained. The inhibitory activity of the compound was monitored on the virus-infected cells and was expressed as EC50. These values represent the amount of the compound required to protect 50% of the cells from virus infection. (Table 3).
# beagle dog [5] = assay: Single dose escalation/five day repeat dose toxicology study in beagle dog; type: in vivo
# Method: In a single dose escalation/S day repeat dose dog toxicology study, beagle dogs were treated with compound II according to the current invention at dose levels from 40 up to 144 mg/kg day.
# [6] = test system: clinically isolated HIV strain A; assay: Cellular anti-viral assay in MT4-LTR-EGFP cells, mutant strain A; type: cell-based; details: Human immunodeficiency virus 1, 72 h, read-out: pEC50 virus strain A (converted)
# Method: as §2, §3
# [7] = test system: wild type laboratory HIV strain (WT IIIB-2-001); assay: Cellular anti-viral assay in MT4-LTR-EGFP cells, wild type strain; type: cell-based; details: Human immunodeficiency virus 1, IIIB, 72 h; MT4-LTR-EGFP cells, three days, GFP signal; read-out: pEC50 WT-IIIB-2-001 (converted)
# Method: The compounds were tested in a cellular assay using the MT4-LTR-EGFP cells for anti-viral activity.
# as §3, with “In the virus control samples (in the absence of any inhibitor) the maximal fluorescent signal was obtained.” left out, “infection.” for “infection. (Table 3).”
# [8] = Plasma exposure (AUC) in single-dose, dose-escalating dog study; type: in vivo, Beagle dogs; details: beagle
# Method: as §1, with “edema. The concentration of the compound having formula (II) in dog plasma was determined using a LC-MS/MS method. Raw data were used to calculate standard pharmacokinetic parameters (e.g. AUC) as a measure of systemic exposure. The systemic exposure for the compound having formula (II) was compared to the exposure of a reference compound having structural formula (III), in similar single-dose experiments in dogs, in the absence of a booster (ritonavir).” for “edema.”
# [9] = test system: clinically isolated HIV strain B; assay: Cellular anti-viral assay in MT4-LTR-EGFP cells, mutant strain B; type: cell-based; details: Human immunodeficiency virus 1, 72 h, read-out: pEC50 virus strain B (converted)
# Method: as §2, §3
# [10] = test system: clinically isolated HIV strain D; assay: Cellular anti-viral assay in MT4-LTR-EGFP cells, mutant strain D; type: cell-based; details: Human immunodeficiency virus 1, 72 h, read-out: pEC50 virus strain D (converted)
# Method: as §2, §3
# beagle dog [11] = assay: Oral 3 month dog toxicology study; type: in vivo
# Method: In some cases, these symptoms started as maculate erythema and/or nodular swelling and progressed to diffuse/general erythema and swelling. Signs were predominantly visible in areas with thin/sparse fur including the ears, periorbital region and abdomen. The findings were transient, with maximal severity about one hour after dosing and disappearing or decreasing to lower severity by 4 hours post-administration.
# [12] = 10 mg/kg, 10 mg/kg compound II single oral, with Ritonavir 10 mg/kg twice daily
# [13] = 10 mg/kg, 10 mg/kg compound II single oral, without Ritonavir
# [14] = 40 mg/kg compound II single oral, with Ritonavir 10 mg/kg twice daily
# [15] = 40 mg/kg, 40 mg/kg compound II single oral, without Ritonavir
compound,measurement,setting,value
"CC(C)CN(C[C@@H](O)[C@H](Cc1ccccc1)NC(=O)O[C@H]1CO[C@H]2OCC[C@H]21)S(=O)(=O)c1ccc2nc(NC3CCN(C4CCCC4)CC3)sc2c1 [Compound 7, (1-benzyl-3-{[2-(1-cyclopentyl-piperidin-4-ylamino)-benzothiazole-6-sulfonyl]-isobutyl-amino}-2-hydroxy-propyl)-carbamic acid hexahydro-furo[2,3-b]furan-3-yl ester]",Erythema/edema,"Beagle dogs [1]; oral single dose 20 mg/kg, with ritonavir (RTV) coadministration",No
same,Erythema/edema,"Beagle dogs [1]; oral single dose 40 mg/kg, with ritonavir (RTV) coadministration",No
same,Erythema/edema,"Beagle dogs [1]; oral single dose 80 mg/kg, with ritonavir (RTV) coadministration",No
same,induction of erythema and/or edema,Beagle dogs [1],did not induce erythema and/or edema
same,Cmax Ratio (with/without Ritonavir),[2]; 10 mg/kg compound II,7.1
same,Relative bioavailability Frel (AUC0-inf with vs without Ritonavir),[2]; 10 mg/kg compound II,1378%
same,Cmax Ratio (with/without Ritonavir),[2]; 40 mg/kg compound II,3.6
same,Relative bioavailability Frel (AUC0-inf with vs without Ritonavir),[2]; 40 mg/kg compound II,1083%
same,increase of AUC in the presence of ritonavir,[2]; 10 and 40 mg/kg compound II,over 10 fold
same,increase of Cmax in the presence of ritonavir,[2]; 10 and 40 mg/kg compound II,4 to 7 fold
same,AUC(0-inf),[2]; [12],4370 ng·h/mL
same,Cmax,[2]; [12],879 ng/mL
same,AUC(0-inf),[2]; [13],330 ng·h/mL
same,Cmax,[2]; [13],123 ng/mL
same,AUC(0-inf),[2]; [14],23600 ng·h/mL
same,Cmax,[2]; [14],4220 ng/mL
same,AUC(0-inf),[2]; [15],2290 ng·h/mL
same,Cmax,[2]; [15],1190 ng/mL
same,total plasma exposure (AUC) and peak plasma concentrations (Cmax) after co-administration with ritonavir,"[2]; twice-daily dosing of 10 mg/kg ritonavir, in words",markedly increased
same,Erythema/edema,"Beagle dogs [3]; 1-month study, dose levels 5, 20 and 40 mg/kg/day",neither erythema nor edema was noted
same,erythema and edema after oral administration,Beagle dogs [3],did not induce erythema and/or edema
same,EC50,[4],2880 nM
same,edema or erythema,beagle dog [5]; dose levels from 40 up to 144 mg/kg day,No evidence of edema or erythema
same,EC50,[6],11.7 nM
same,EC50,[7],13.2 nM
same,AUC,"[8]; oral single dose 20 mg/kg, with ritonavir (RTV) coadministration, mean of 4 animals",7750 ng·h/mL
same,AUC,"[8]; oral single dose 40 mg/kg, with ritonavir (RTV) coadministration, mean of 4 animals",23000 ng·h/mL
same,AUC,"[8]; oral single dose 80 mg/kg, with ritonavir (RTV) coadministration, mean of 4 animals",23000 ng·h/mL
same,EC50,[9],20 nM
same,EC50,[10],13.5 nM
CC(C)CN(C[C@@H](O)[C@H](Cc1ccccc1)NC(=O)O[C@H]1CO[C@H]2OCC[C@H]21)S(=O)(=O)c1ccc2nc(NCCN3CCCC3)sc2c1 [Reference compound having formula (III)],Erythema/edema,"Beagle dogs [1]; single dose 10 mg/kg, absence of booster",No
same,Erythema/edema,"Beagle dogs [1]; single dose 40 mg/kg, absence of booster",No
same,Erythema/edema,"Beagle dogs [1]; single dose 80 mg/kg, absence of booster",Yes
same,Erythema/edema,"Beagle dogs [1]; single dose 120 mg/kg, absence of booster",Yes
same,induction of erythema and/or edema,Beagle dogs [1],did induce these clinical signs
same,redness of the skin (erythema),"Beagle dogs [3]; 28 day study, all dose levels (40, 80, 120 mg/kg/day), most animals",slight to severe redness of the skin
same,onset of erythema symptoms,"Beagle dogs [3]; 28 day study, dose levels 80 and 120 mg/kg/day",present from the start of the study
same,onset of erythema symptoms,"Beagle dogs [3]; 28 day study, low dose level 40 mg/kg/day",third week
same,swelling (edema) accompanying erythema,"Beagle dogs [3]; 28 day study, head, flews, eyes and/or ears, most cases",accompanied by swelling (edema)
same,time after dosing of maximal erythema/edema findings,"Beagle dogs [3]; 28 day study, transient findings",1 to 2 h
same,erythema and edema after oral administration,Beagle dogs [3],produced erythema and edema
same,erythema,"beagle dog [5]; high dose level 80 mg/kg/day, after five consecutive days of treatment",exhibited general erythema
same,AUC,"[8]; oral, single dose 10 mg/kg, absence of booster, range",47 to 238 ng·h/mL
same,AUC,"[8]; oral, single dose 40 mg/kg, absence of booster, range",3320 to 5090 ng·h/mL
same,AUC,"[8]; oral, single dose 80 mg/kg, absence of booster, range",7370 to 16000 ng·h/mL
same,AUC,"[8]; oral, single dose 120 mg/kg, absence of booster, range",10200 to 27500 ng·h/mL
same,erythema or edema,beagle dog [11]; 10 mg/kg/day,No erythema or edema was observed
same,erythema,"beagle dog [11]; 40 mg/kg/day, after 5 weeks of treatment",one of four males dosed at 40 mg/kg/day exhibited general erythema
same,erythema of the skin and swelling,"beagle dog [11]; 120 mg/kg/day, majority of the animals, entire treatment period","slight to severe erythema of the skin, accompanied by swelling"
same,time after dosing of maximal severity of erythema/swelling,"beagle dog [11]; 3 month study, transient findings",about one
